# Test results reported in PMC2577155 (The Journal of neuroscience : the official journal of the …, 2008).
# Numbering of substitutions follows the chain as printed. pKi: −log10 of the molar value. Where two headings read alike, the source gives them in different places.
# Tests used:
# Sprague-Dawley rats [1] = assay: Catalepsy test; assay type: in vivo, rat; details: sc, up to 4 h; TBPB 30-100 mg/kg
# rM1 Y381A = biological target: T1, rM1 Y381A (Rattus norvegicus, UniProt P08482, Y381A); details: ref Sur et al., 2003; cited from earlier work
# T1 sequence (P08482 1-460 Y381A): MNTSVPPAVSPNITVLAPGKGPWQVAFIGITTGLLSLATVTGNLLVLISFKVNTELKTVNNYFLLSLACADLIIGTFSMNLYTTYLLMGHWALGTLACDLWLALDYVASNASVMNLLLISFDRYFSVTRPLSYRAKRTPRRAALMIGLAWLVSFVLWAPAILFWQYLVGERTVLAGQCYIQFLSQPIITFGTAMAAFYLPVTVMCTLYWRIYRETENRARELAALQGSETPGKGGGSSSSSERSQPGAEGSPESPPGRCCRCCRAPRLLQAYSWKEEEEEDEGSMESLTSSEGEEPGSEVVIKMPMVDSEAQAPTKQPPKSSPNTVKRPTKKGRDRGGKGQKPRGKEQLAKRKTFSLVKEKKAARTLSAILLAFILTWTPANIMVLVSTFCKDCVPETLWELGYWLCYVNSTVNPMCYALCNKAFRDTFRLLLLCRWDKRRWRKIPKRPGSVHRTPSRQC
# Sprague-Dawley rats [2] = assay: Amphetamine-induced hyperlocomotion; assay type: in vivo, rat; details: significant after 10, 30 and 56.6 mg/kg sc; amphetamine 1 mg/kg sc
# rM1 [3] = biological target: T2, rM1 (Rattus norvegicus, UniProt P08482); details: atropine 1-10 nM (CCh) or 0.3-3.0 nM (TBPB)
# T2 sequence (P08482 1-460): T1 sequence (P08482 1-460 Y381A) with A381Y
# rats = assay: Modified Irwin neurological test battery; assay type: in vivo, rat; details: 100 mg/kg
# hM3 = hM3 (Homo sapiens, UniProt P20309); assay: Calcium mobilization assay, CHO cells expressing hM3; assay type: cell-based; details: M3, concentrations up to 10μM
# Aβ40 = assay type: cell-based; details: conditioned media, ELISA
# [4] = system: amyloid precursor protein (APP) processing; assay type: cell-based; details: eight hours
# hM5 = biological target: T3, hM5 (Homo sapiens, UniProt P08912); assay: Calcium mobilization assay, CHO cells expressing hM5; assay type: cell-based; details: M5, concentrations up to 10μM
# T3 sequence (P08912 1-532): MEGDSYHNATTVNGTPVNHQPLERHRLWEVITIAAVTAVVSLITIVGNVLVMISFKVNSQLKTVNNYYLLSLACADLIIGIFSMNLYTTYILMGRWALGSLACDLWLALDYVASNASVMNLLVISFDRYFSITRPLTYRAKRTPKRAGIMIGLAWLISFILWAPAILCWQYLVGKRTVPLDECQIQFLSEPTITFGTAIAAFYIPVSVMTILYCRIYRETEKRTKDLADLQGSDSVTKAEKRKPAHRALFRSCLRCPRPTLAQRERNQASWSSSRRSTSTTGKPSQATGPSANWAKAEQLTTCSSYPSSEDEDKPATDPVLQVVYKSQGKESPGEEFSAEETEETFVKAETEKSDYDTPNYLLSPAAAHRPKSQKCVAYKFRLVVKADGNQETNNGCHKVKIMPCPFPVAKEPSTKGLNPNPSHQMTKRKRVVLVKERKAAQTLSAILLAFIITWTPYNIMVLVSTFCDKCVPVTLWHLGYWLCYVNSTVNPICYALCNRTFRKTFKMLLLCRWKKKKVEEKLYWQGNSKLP
# hM2 = biological target: T4, hM2 (Homo sapiens, UniProt P08172); assay: Calcium mobilization assay, CHO cells expressing hM2-Gqi5; assay type: cell-based; details: M2, concentrations up to 10μM
# T4 sequence (P08172 1-466): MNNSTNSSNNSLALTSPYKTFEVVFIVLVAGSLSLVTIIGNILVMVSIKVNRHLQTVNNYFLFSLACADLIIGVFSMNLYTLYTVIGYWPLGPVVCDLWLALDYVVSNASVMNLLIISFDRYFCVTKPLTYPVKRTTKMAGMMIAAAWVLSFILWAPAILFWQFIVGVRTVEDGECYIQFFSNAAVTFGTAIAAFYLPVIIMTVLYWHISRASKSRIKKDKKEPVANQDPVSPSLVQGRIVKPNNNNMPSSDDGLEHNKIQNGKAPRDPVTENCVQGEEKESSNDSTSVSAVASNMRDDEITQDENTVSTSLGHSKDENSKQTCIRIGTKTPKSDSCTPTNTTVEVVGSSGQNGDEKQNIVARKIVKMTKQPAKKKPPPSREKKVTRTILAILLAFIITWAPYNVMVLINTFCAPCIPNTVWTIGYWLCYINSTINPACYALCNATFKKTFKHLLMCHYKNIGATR
# rM1 [5] = biological target: T2, rM1; details: wt rM1
# Sprague-Dawley rats [6] = assay: Locomotor activity when administered alone; assay type: in vivo, rat; details: 30-100 mg/kg sc
# [7] = system: Fos-like immunoreactivity; assay: Fos immunohistochemistry in rat forebrain; assay type: in vivo; details: 100 mg/kg sc, two hours after treatment
# D2 receptors = D2 receptors (Homo sapiens, UniProt P14416); assay: D2 receptor affinity, NIMH Psychoactive Drug Screening Program; assay type: binding; details: D2, PDSP accession number 3156
# rM4 = biological target: T5, rM4 (Rattus norvegicus, UniProt P08485); assay: Calcium mobilization assay, CHO-K1 cells expressing rM4-Gqi5; assay type: cell-based; details: M4, concentrations up to 10μM
# T5 sequence (P08485 1-478): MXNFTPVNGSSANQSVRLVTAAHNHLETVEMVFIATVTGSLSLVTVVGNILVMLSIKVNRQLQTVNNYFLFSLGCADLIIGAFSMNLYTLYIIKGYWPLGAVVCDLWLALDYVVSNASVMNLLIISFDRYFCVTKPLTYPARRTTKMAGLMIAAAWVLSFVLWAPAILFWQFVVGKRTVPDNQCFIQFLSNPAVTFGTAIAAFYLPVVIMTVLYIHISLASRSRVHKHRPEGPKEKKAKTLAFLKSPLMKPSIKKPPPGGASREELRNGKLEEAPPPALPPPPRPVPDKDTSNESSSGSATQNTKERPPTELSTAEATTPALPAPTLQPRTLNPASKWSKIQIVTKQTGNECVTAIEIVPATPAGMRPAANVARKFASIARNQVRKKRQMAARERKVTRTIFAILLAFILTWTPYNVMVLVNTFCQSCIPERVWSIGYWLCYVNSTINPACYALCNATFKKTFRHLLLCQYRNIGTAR
# Sprague-Dawley rats [8] = details: ref Shannon et al., 2000; cited from earlier work
# hM3, sequence (P20309 whole entry): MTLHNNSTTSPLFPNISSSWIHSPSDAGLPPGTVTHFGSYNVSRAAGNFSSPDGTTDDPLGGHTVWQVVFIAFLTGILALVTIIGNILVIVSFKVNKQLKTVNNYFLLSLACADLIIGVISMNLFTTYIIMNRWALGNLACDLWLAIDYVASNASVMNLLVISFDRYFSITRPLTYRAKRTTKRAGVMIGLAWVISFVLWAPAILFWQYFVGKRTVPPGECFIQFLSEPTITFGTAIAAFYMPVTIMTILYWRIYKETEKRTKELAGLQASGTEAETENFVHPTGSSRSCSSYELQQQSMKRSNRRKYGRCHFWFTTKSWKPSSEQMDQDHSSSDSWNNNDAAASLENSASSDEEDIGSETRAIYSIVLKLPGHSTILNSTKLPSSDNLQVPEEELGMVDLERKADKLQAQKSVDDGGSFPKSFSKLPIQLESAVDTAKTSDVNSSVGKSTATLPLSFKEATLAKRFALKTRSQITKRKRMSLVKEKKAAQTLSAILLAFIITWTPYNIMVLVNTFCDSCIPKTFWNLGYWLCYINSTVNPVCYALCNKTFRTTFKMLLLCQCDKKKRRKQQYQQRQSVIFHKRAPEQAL
# D2 receptors, sequence (P14416 whole entry): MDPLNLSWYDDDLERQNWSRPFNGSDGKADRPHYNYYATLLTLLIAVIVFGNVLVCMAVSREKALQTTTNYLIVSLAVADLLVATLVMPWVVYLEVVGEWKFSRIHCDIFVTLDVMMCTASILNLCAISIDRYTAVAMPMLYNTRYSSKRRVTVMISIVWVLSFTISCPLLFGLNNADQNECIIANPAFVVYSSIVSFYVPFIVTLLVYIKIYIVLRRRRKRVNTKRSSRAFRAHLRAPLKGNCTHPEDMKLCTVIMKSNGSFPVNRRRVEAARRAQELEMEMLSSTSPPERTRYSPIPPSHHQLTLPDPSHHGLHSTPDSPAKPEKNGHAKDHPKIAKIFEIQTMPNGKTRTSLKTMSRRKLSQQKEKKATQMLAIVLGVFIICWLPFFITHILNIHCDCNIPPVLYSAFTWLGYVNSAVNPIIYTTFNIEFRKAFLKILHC
compound,measurement,setting,value
"O=C(CCCN1CCC(O)(c2ccc(Cl)cc2)CC1)c1ccc(F)cc1 [Haloperidol, haloperidol]",catalepsy,Sprague-Dawley rats [1],dose-and time-related increases in catalepsy
Clc1ccc2c(c1)N=C(N1CCNCC1)c1ccccc1N2 [N-desmethylclozapine],activation of the M1 (Y381A) mutant,rM1 Y381A,fully activates
Cc1ccccc1CN1CCC(N2CCC(n3c(=O)[nH]c4ccccc43)CC2)CC1 [TBPB],effect on amphetamine-induced hyperlocomotion,Sprague-Dawley rats [2],"robust, dose-related inhibition"
same,interaction of the agonist with the orthosteric antagonist atropine,rM1 [3],noncompetitive
same,core body temperature,rats,slight decrease
same,agonist activity,hM3,no agonist activity
same,"Aβ40 levels, % of the vehicle control",Aβ40,61%
same,increase in shedding of APPsα compared to vehicle-treated cells,[4]; 1 μM,58%
same,production of CTFα,[4]; cell lysates,increased
same,agonist activity,hM5,no agonist activity
same,agonist activity,hM2,no agonist activity
same,response as % of the maximal response to CCh,rM1 [5],77.3±3.4%
same,effect on general locomotor output when administered alone,Sprague-Dawley rats [6],no effect
same,number of Fos-like immunoreactive neurons,[7]; DStr lateral,2.3 ± 1.3 per mm^2
same,number of Fos-like immunoreactive neurons,[7]; DStr medial,4.2 ± 1.2 per mm^2
same,number of Fos-like immunoreactive neurons,[7]; NAS shell,72.2 ± 12.6 per mm^2
same,number of Fos-like immunoreactive neurons,[7]; PFC,326.3 ± 57.1 per mm^2
same,catalepsy,Sprague-Dawley rats [1],did not induce catalepsy
same,pKi,D2 receptors,5.85
same,agonist activity,rM4,no agonist activity
CN1CCN(C2=Nc3cc(Cl)ccc3Nc3ccccc32)CC1 [clozapine],catalepsy,Sprague-Dawley rats [1],failed to produce catalepsy
CCCCCCOc1nsnc1C1=CCCN(C)C1 [xanomeline],catalepsy,Sprague-Dawley rats [8],lack of catalepsy
